Columns and labels:
bacteria [1] = experiment: Determination of sensitivity of bacteria (Table 9); type: cell-based; details: product at 30 ppm (column 12; columns 11-14 also Free Bacter 3 ppm, Prevent 5 and 3 ppm)
Description: (§1) The purpose was to determine the antimicrobial action of a combination of cashew nut liquid and ricinoleic acid, and the effects on yeast (Saccharomyces cerevisiae) during alcoholic fermentation, response to different dosages and under acidic conditions. The items below were evaluated: • Laboratory fermentation with Saccharomyces cerevisiae by evaluating the feasibility and growth of yeast, in addition to bacteria developed at different concentrations of the products and mixtures; • Evaluation of the deflocculation power of yeast in fermentations at several dosages of the products and mixtures; • Evaluation of different dosages in the test for Sensitivity of Bacteria to define the quantity of products and mixtures to be recommended in the fermentation process by comparing them to other antibiotics previously tested and approved being used in the current market; • Identification of the characteristics of products and mixtures during the handling; • Evaluation of products and mixtures at low pH by simulating the conventional treatment of the yeast milk. The studies were based on the cause vs. effect methodology, using the observation of the growth of microorganisms as a parameter for responses. […]

bacteria [2] = experiment: Determination of sensitivity of bacteria (Table 8); type: cell-based; details: product at 50, 40, 30 ppm (columns 10-12)
Description: as §1

E. acervulina = experiment: Degree of intestinal lesion in inoculated chickens, E. acervulina (Example 2); type: in vivo; details: 24th day of age; 0 no lesion, 4 maximum lesion; salinomycin 66 ppm, AC 1500 ppm
Text: (§2) Seven hundred and twenty chickens were randomly distributed into four treatments with six repetitions each, with 30 animals in each repetition. The birds were placed in a conventional yard divided into boxes.
(§3) The four treatments were (1. Non-inoculated, without anticoccidial; 2. Inoculated without anticoccidial; 3. Inoculated-salinomycin (66 ppm); 4. inoculated-AC (1500 ppm)). The birds were inoculated at the 18th day of age with 0.5 liter of inocula containing 10,000, 9,000, and 8,000 sporulated oocysts of Eimeria tenella, Eimeria maxima, and Eimeria acervulina, respectively. This solution was mixed with the feed and offered to each group of 30 birds. At the 24th day of age, the degree of intestinal lesion was evaluated (0—no lesion, 4—maximum lesion). The AC composition was 12% castor oil, 40% cashew nut liquid, and 48% carrier.
(§4) The experimental design utilized seven hundred and twenty chickens which were randomly distributed into four treatments and six repetitions. The averages were compared using the SNK test (Student-Newman-Keuls).

E. tenella = experiment: Degree of intestinal lesion in inoculated chickens, E. tenella (Example 2); type: in vivo; details: 24th day of age; 0 no lesion, 4 maximum lesion; salinomycin 66 ppm, AC 1500 ppm
Text: as §2, §3, §4

[3] = tested on: Eimeria tenella, Eimeria maxima, and Eimeria acervulina; experiment: Performance of chickens inoculated with Eimeria oocysts, first to 40th day of age (Example 2); type: in vivo; details: salinomycin 66 ppm, AC 1500 ppm, inoculated at 18th day
Text: as §2, §3, §4

E. maxima = experiment: Degree of intestinal lesion in inoculated chickens, E. maxima (Example 2); type: in vivo; details: 24th day of age; 0 no lesion, 4 maximum lesion; salinomycin 66 ppm, AC 1500 ppm
Text: as §2, §3, §4

CCCCCC[C@@H](O)C/C=C\CCCCCCCC(=O)O [Product P2, Ricinoleic Acid]
Performance in sensitivity of bacteria test (bacteria [1]): negative results
Performance in sensitivity of bacteria test (bacteria [2]): negative results

CC[C@@H](C(=O)[C@@H](C)[C@@H](O)[C@H](C)[C@@H]1O[C@@H]([C@@H](CC)C(=O)O)CC[C@@H]1C)[C@H]1O[C@]2(C=C[C@@H](O)[C@]3(CC[C@@](C)([C@H]4CC[C@](O)(CC)[C@H](C)O4)O3)O2)[C@H](C)C[C@@H]1C [salinomycin]
Degree of intestinal lesion, E. acervulina (E. acervulina): 0.72 b
Degree of intestinal lesion, E. tenella (E. tenella): 1.61 a
Final weight ([3]; 40th day of age): 2305 b g
Alimentary conversion ([3]; first to 40th day of age): 1.78 a
Ingestion ([3]; first to 40th day of age): 4018 bc g
Viability ([3]; first to 40th day of age): 97.5 a
Weight gain ([3]; first to 40th day of age): 2261 b g
Degree of intestinal lesion, E. maxima (E. maxima): 0.72 a
